Assay results: EP2607478A1, “Phenanthroline treated MSC” (Universiteit Twente, priority 2011, dated 2013)

Test system: MSCs
Assay: Whole genome expression analysis (Illumina microarray) of treated MSCs
Type: cell-based, Human
Description: MSCs were seeded in T25 flasks at 5000 cells/cm^2 and allowed to attach overnight in proliferation medium. […] After 48 hours, RNA was isolated as described above. From 500 ng of RNA, cRNA was synthesized using the Illumina TotalPrep RNA amplification Kit (Ambion), according to the manufacturer's protocol and the quality of RNA and cRNA was verified on a Bioanalyzer 2100 (Agilent). Microarrays were performed using Illumina HT-12 v4 expression Beadchips, according to the manufacturer's protocol. Briefly, 750 ng of cRNA was hybridized on the array overnight after which the array was washed and blocked. Then, by addition of streptavidin Cy-3 a fluorescent signal was developed. Arrays were scanned on an Illumina iScan reader and raw intensity values were background corrected in GenomeStudio (Illumina). Further data processing and statistical testing were performed with R and Bioconductor statistical software (www.bioconductor.org), using package lumi. Raw intensity values were transformed using variance stabilization and a quantile normalization was performed. A linear modelling approach with empirical Bayesian methods, as implemented in Limma package (54), was applied for differential expression analysis of the resulting probe-level expression values. A gene list, containing only those genes with an absolute 1.5-fold change between different treatments, was uploaded to Ingenuity Pathway Analysis (IPA) software and used for core analysis. Pathways or networks with a p-value of 0.05 were considered statistically significant.

c1cnc2c(c1)ccc1cccnc12 [PHE, 1, 10-phenanthroline]
logFC(D142_PHE - D142_BAS) DLX5 (ProbeID ILMN_1759598): -2,28
logFC(D142_PHE - D142_BAS) C4orf18 (ProbeID ILMN_1761941): -2,15
logFC(D142_PHE - D142_BAS) AK3L1 (ProbeID ILMN_1764090): 3,40
logFC(D142_PHE - D142_BAS) JARID2 (ProbeID ILMN_1764177): 2,12
logFC(D142_PHE - D142_BAS) MUM1 (ProbeID ILMN_1764764): -2,05
logFC(D142_PHE - D142_BAS) OLFML2B (ProbeID ILMN_1765557, PHE vs BAS): -3,04
logFC(D142_PHE - D142_BAS) LOC399942 (ProbeID ILMN_1765701, PHE vs BAS): -2,98
logFC(D142_PHE - D142_BAS) ENO2 (ProbeID ILMN_1765796): 4,72
logFC(D142_PHE - D142_BAS) KCNK2 (ProbeID ILMN_1765990, PHE vs BAS): -2,82
logFC(D142_PHE - D142_BAS) C10orf10 (ProbeID ILMN_1767556): 3,71
logFC(D142_PHE - D142_BAS) HIST2H2AC (ProbeID ILMN_1768973): 3,39
logFC(D142_PHE - D142_BAS) ISOC2 (ProbeID ILMN_1769158): -2,08
logFC(D142_PHE - D142_BAS) KRT34 (ProbeID ILMN_1770228): 2,77
logFC(D142_PHE - D142_BAS) CNN2 (ProbeID ILMN_1770290, PHE vs BAS): -3,30
logFC(D142_PHE - D142_BAS) ANGPTL2 (ProbeID ILMN_1772612, PHE vs BAS): -2,93
logFC(D142_PHE - D142_BAS) EML3 (ProbeID ILMN_1772644): -2,23
logFC(D142_PHE - D142_BAS) ZNF395 (ProbeID ILMN_1772876): 3,66
logFC(D142_PHE - D142_BAS) GAS1 (ProbeID ILMN_1772910, PHE vs BAS): -3,75
logFC(D142_PHE - D142_BAS) C16orf72 (ProbeID ILMN_1773407): 2,40
logFC(D142_PHE - D142_BAS) LOC441054 (ProbeID ILMN_1774390): 2,68
logFC(D142_PHE - D142_BAS) FBLN2 (ProbeID ILMN_1774602, PHE vs BAS): -2,40
logFC(D142_PHE - D142_BAS) SMOX (ProbeID ILMN_1775380): 2,29
logFC(D142_PHE - D142_BAS) SLC2A3 (ProbeID ILMN_1775708): 3,23
logFC(D142_PHE - D142_BAS) BTG1 (ProbeID ILMN_1775743): 2,36
logFC(D142_PHE - D142_BAS) MYL9 (ProbeID ILMN_1776953): -2,25
logFC(D142_PHE - D142_BAS) STAT1 (ProbeID ILMN_1777325): -2,01
logFC(D142_PHE - D142_BAS) LOC731007 (ProbeID ILMN_1777499): 2,46
logFC(D142_PHE - D142_BAS) KCTD11 (ProbeID ILMN_1777513): 3,02
logFC(D142_PHE - D142_BAS) LOC644774 (ProbeID ILMN_1779258): 3,09
logFC(D142_PHE - D142_BAS) CPA4 (ProbeID ILMN_1784294): 5,44
logFC(D142_PHE - D142_BAS) TUBA4A (ProbeID ILMN_1784300): 2,80
logFC(D142_PHE - D142_BAS) SPOCD1 (ProbeID ILMN_1784948, PHE vs BAS): -3,46
logFC(D142_PHE - D142_BAS) PRKD1 (ProbeID ILMN_1785891, PHE vs BAS): -2,51
logFC(D142_PHE - D142_BAS) UHRF1 (ProbeID ILMN_1786065): -2,25
logFC(D142_PHE - D142_BAS) PSME2 (ProbeID ILMN_1786612, PHE vs BAS): -2,64
logFC(D142_PHE - D142_BAS) MFAP2 (ProbeID ILMN_1787981): -2,29
logFC(D142_PHE - D142_BAS) COL11A1 (ProbeID ILMN_1789507, PHE vs BAS): -3,53
logFC(D142_PHE - D142_BAS) GBE1 (ProbeID ILMN_1789702): 2,68
logFC(D142_PHE - D142_BAS) Mar-04 (ProbeID ILMN_1789991): 2,06
logFC(D142_PHE - D142_BAS) PRRX2 (ProbeID ILMN_1790338, PHE vs BAS): -2,93
logFC(D142_PHE - D142_BAS) C6orf125 (ProbeID ILMN_1790461): -2,25
logFC(D142_PHE - D142_BAS) LUM (ProbeID ILMN_1790529, PHE vs BAS): -3,46
logFC(D142_PHE - D142_BAS) CRISPLD2 (ProbeID ILMN_1790689): -2,32
logFC(D142_PHE - D142_BAS) PNMA2 (ProbeID ILMN_1790778): 2,46
logFC(D142_PHE - D142_BAS) CXCL12 (ProbeID ILMN_1791447, PHE vs BAS): -3,48
logFC(D142_PHE - D142_BAS) DPYSL4 (ProbeID ILMN_1792356): 3,91
logFC(D142_PHE - D142_BAS) TMEM158 (ProbeID ILMN_1792455): 3,06
logFC(D142_PHE - D142_BAS) HIST1H2AC (ProbeID ILMN_1792689): 2,10
logFC(D142_PHE - D142_BAS) SERTAD1 (ProbeID ILMN_1794017): 2,93
logFC(D142_PHE - D142_BAS) NDUFS8 (ProbeID ILMN_1794132): -2,07
logFC(D142_PHE - D142_BAS) HAS3 (ProbeID ILMN_1794501, PHE vs BAS): -2,42
logFC(D142_PHE - D142_BAS) CAMK2N1 (ProbeID ILMN_1794863): 2,88
logFC(D142_PHE - D142_BAS) OKL38 (ProbeID ILMN_1795963): 2,72
logFC(D142_PHE - D142_BAS) HIST1H2BK (ProbeID ILMN_1796179): 2,23
logFC(D142_PHE - D142_BAS) GDF5 (ProbeID ILMN_1796471): -2,25
logFC(D142_PHE - D142_BAS) C3orf58 (ProbeID ILMN_1797372): 2,45
logFC(D142_PHE - D142_BAS) HMGCS1 (ProbeID ILMN_1797728): -2,20
logFC(D142_PHE - D142_BAS) AK3L1 (ProbeID ILMN_1798249): 3,18
logFC(D142_PHE - D142_BAS) CXCR7 (ProbeID ILMN_1798360): 2,96
logFC(D142_PHE - D142_BAS) MCM6 (ProbeID ILMN_1798654): -2,31
logFC(D142_PHE - D142_BAS) RARRES1 (ProbeID ILMN_1800091): -2,22
logFC(D142_PHE - D142_BAS) HMOX1 (ProbeID ILMN_1800512): 2,82
logFC(D142_PHE - D142_BAS) LDB2 (ProbeID ILMN_1800697, PHE vs BAS): -2,38
logFC(D142_PHE - D142_BAS) PLIN2 (ProbeID ILMN_1801077): 3,49
logFC(D142_PHE - D142_BAS) RLF (ProbeID ILMN_1801156): 2,05
logFC(D142_PHE - D142_BAS) SIAH2 (ProbeID ILMN_1801313): 2,15
logFC(D142_PHE - D142_BAS) METRNL (ProbeID ILMN_1801610): 2,03
logFC(D142_PHE - D142_BAS) CCNB2 (ProbeID ILMN_1801939, PHE vs BAS): -2,66
logFC(D142_PHE - D142_BAS) GLT8D2 (ProbeID ILMN_1802654): -2,05
logFC(D142_PHE - D142_BAS) FAM162A (ProbeID ILMN_1803647): 2,36
logFC(D142_PHE - D142_BAS) CXCL12 (ProbeID ILMN_1803825, PHE vs BAS): -2,38
logFC(D142_PHE - D142_BAS) VEGFA (ProbeID ILMN_1803882): 4,07
logFC(D142_PHE - D142_BAS) SRXN1 (ProbeID ILMN_1804822): 2,32
logFC(D142_PHE - D142_BAS) SLC14A1 (ProbeID ILMN_1805561, PHE vs BAS): -2,57
logFC(D142_PHE - D142_BAS) PFKP (ProbeID ILMN_1805737): 2,32
logFC(D142_PHE - D142_BAS) TK1 (ProbeID ILMN_1806037): -2,14
logFC(D142_PHE - D142_BAS) SLC6A8 (ProbeID ILMN_1806349): 2,45
logFC(D142_PHE - D142_BAS) FMO3 (ProbeID ILMN_1808657, PHE vs BAS): -2,85
logFC(D142_PHE - D142_BAS) PGF (ProbeID ILMN_1809813): 3,28
logFC(D142_PHE - D142_BAS) NDRG1 (ProbeID ILMN_1809931): 4,06
logFC(D142_PHE - D142_BAS) P8 (ProbeID ILMN_1810560): 2,09
logFC(D142_PHE - D142_BAS) KIAA0367 (ProbeID ILMN_1810628): -2,12
logFC(D142_PHE - D142_BAS) PDE5A (ProbeID ILMN_1810836, PHE vs BAS): -3,04
logFC(D142_PHE - D142_BAS) LOC402221 (ProbeID ILMN_1811909): -2,18
logFC(D142_PHE - D142_BAS) FAM20A (ProbeID ILMN_1812091): -2,34
logFC(D142_PHE - D142_BAS) HIST1H2BK (ProbeID ILMN_1813314): 2,41
logFC(D142_PHE - D142_BAS) KIAA1199 (ProbeID ILMN_1813704, PHE vs BAS): -4,06
logFC(D142_PHE - D142_BAS) FKSG30 (ProbeID ILMN_1814998): -2,20
logFC(D142_PHE - D142_BAS) PIM1 (ProbeID ILMN_1815023): 2,29
logFC(D142_PHE - D142_BAS) PLAGL1 (ProbeID ILMN_1815121): 2,24
logFC(D142_PHE - D142_BAS) DHCR7 (ProbeID ILMN_1815626): -2,12
logFC(D142_PHE - D142_BAS) ERCC2 (ProbeID ILMN_1815859): -2,17
logFC(D142_PHE - D142_BAS) (ProbeID ILMN_1816244, no gene name printed): 2,02
